This is an account of results in patent US8084448B2, “Organic compounds” (Novartis AG, priority 2006, dated 2011).

Where a name gives a salt, the structure may show the parent alone.

For `O=C1CN(c2ccc(-c3ccoc3)cc2O)S(=O)(=O)N1` (as salt: potassium) [Example 272, 5-(4-Furan-3-yl-2-hydroxyphenyl)-1,1-dioxo-1,2,5-thiadiazolidin-3-one], the melting point – broadly, the temperature of the solid-liquid transition – was in the range of 230 to 235 °C.

Take `O=C1CN(c2ccc(OCCc3ccccc3)cc2O)S(=O)(=O)N1` [Example 55, 5-(2-Hydroxy-4-phenethyloxyphenyl)-1,1-dioxo-1,2,5-thiadiazolidin-3-one]: the melting point was in the range of 65 to 70 °C.

With `COC(=O)c1c(O)cccc1OCCCCNC(=O)CCc1ccc(N2CC(=O)NS2(=O)=O)c(O)c1` [Example 110, 2-Hydroxy-6-(4-{3-[3-hydroxy-4-(1,1,4-trioxo-1,2,5-thiadiazolidin-2-yl)-phenyl]-propionylamino}-butoxy)-benzoic Acid Methyl Ester], the melting point was 85 to 90 °C.

With `O=C(O)COc1ccc(N2CC(=O)NS2(=O)=O)c(O)c1` [Example 296, [3-Hydroxy-4-(1,1,4-trioxo-1,2,5-thiadiazolidin-2-yl)-phenoxy]-acetic Acid], the melting point lay within 185 to 188 °C.

Compound `O=C1CN(c2ccc(S(=O)(=O)c3ccccc3)cc2O)S(=O)(=O)N1` [Example 318, 5-(4-Benzenesulfonyl-2-hydroxyphenyl)-1,1-dioxo-1,2,5-thiadiazolidin-3-one] displayed a melting point of 126 to 180 °C.
